# In US12343326B2, “Psychoactive medicines and their use for treating psychiatric and neurological conditions and disorders” (Transcend Therapeutics, Inc., priority 2021, dated 2025):
# Where two headings read alike, the source gives them in different places.
# Assays:
# [1] = cited from earlier work
# [2] = biological target: serotonin transporter (SERT) (Rattus norvegicus, UniProt P31652); experiment: [3H]5HT uptake saturation in rat brain synaptosomes with or without methylone; format: biochemical; conditions: two concentrations of methylone
# healthy adult subjects = experiment: Methylone case series, Cohort 1: safety and tolerability of a single dosing session; format: in vivo, human; conditions: Cohort 1, 4 healthy subjects, total oral dose 790 or 870 mg in one session
# 168 GPCRs [3] = experiment: β-arrestin based GPCR screen (PathHunter / GPCRmax), agonist mode; format: cell-based
# Method: (§1) For agonist determination, cells were incubated with sample to induce response. […] Vehicle concentration was 1%.
# 168 GPCRs [4] = biological target: 168 GPCRs (Homo sapiens, UniProt Q9HB89); experiment: as above; format: cell-based; set-up: host or cells: PathHunter cell lines; conditions: NMU1R
# Method: as §1
# 168 GPCRs [5] = biological target: 168 GPCRs (Homo sapiens, UniProt Q9P296); experiment: as above; format: cell-based; set-up: host or cells: PathHunter cell lines; conditions: C5L2, Agonist
# Method: as §1
# 168 GPCRs [6] = biological target: 168 GPCRs (Homo sapiens, UniProt Q969F8); experiment: as above; format: cell-based; set-up: host or cells: PathHunter cell lines; conditions: KISS1R
# Method: as §1
# 168 GPCRs [7] = biological target: 168 GPCRs (Homo sapiens, UniProt P41597); experiment: as above; format: cell-based; set-up: host or cells: PathHunter cell lines; conditions: CCR2, Agonist
# Method: as §1
# 168 GPCRs [8] = biological target: 168 GPCRs (Homo sapiens, UniProt P34981); experiment: as above; format: cell-based; set-up: host or cells: PathHunter cell lines; conditions: TRHR
# Method: as §1
# 168 GPCRs [9] = biological target: 168 GPCRs (Homo sapiens, UniProt Q8TDV5); experiment: as above; format: cell-based; set-up: host or cells: PathHunter cell lines
# Method: as §1
# rats = experiment: Open field test (OFT); format: in vivo, rat; conditions: for time spent in the center of the open field vs. vehicle: single dose 5 or 15 mg/kg IP (text), 5-30 mg/kg (FIG. 11A), 30 minutes before testing
# Method: This behavioral assay, also widely used as an anxiety paradigm, capitalizes on a rodent's innate fear of brightly lit open spaces, which are assumed to induce fear or anxiety. Rodents spend more time hugging the walls of the open field during the test, and these effects correlate to underlying brain regions and mechanisms.
# Method: Consecutive beam breaks and/or video-tracking of time spent in the center versus periphery of the open field are measured. Also measured are parameters such as distance traveled and ambulatory activity (horizontal and vertical) for the duration of the test session.
# The open field test (OFT) capitalizes on a rodent's innate fear of open spaces to assess anxiety-like behavior. More time spent in the center of an open field reflects an anxiolytic (anti-anxiety) effect.
# Locomotor activity was also measured in the OFT.
# To investigate whether MBDB has an anti-anxiety (anxiolytic) effect, rats were dosed with MBDB (0.5-30 mg/kg, IP) or vehicle (saline) and 30-minutes later were tested in the open field for 30 minutes. This anxiety test capitalizes on a rodents' innate fear of wide-open spaces and propensity to hug the walls when placed into the open field. Therefore, a drug that increases the time spent in the center of the open field has anxiolytic activity and predicts utility for treating anxiety in humans.
# 5HT5A = biological target: T1, 5HT5A (Homo sapiens, UniProt P47898); experiment: GPCRmax screen, agonist mode; format: cell-based
# T1 construct: beta-galactosidase enzyme fragment (PathHunter complementation tag); host or cells: PathHunter cell lines
# [10] = system: myelin basic protein (MBP); experiment: Immunohistochemistry of myelin basic protein; format: in vivo, rat; conditions: 10 mg/kg IP, 24 h
# Method: Immunohistochemistry: The in-life portion of the study was conducted at WuXi Apptec (Cranbury, NJ). Sectioning and staining of brains took place at Neuroscience Associates (NSA, Knoxville, TN). […] Brains were post-fixed in PFA before shipment to NSA for processing and staining. Hemisected brains were mounted, sectioned and stained using standard protocols with myelin-basic protein primary antibody (MBP SMI-99, 1:5000, Biolegend, San Diego, CA) and anti-mouse biotinylated secondary antibody (BA-2001, Vector Laboratories, Newark, CA). Slides were imaged using a Huron Digital Pathology TissueScope LE120 whole slide scanning system. 20× objective was used with a 0.4 μm/pixel resolution.
# 5HT2C receptor = biological target: T2, 5HT2C receptor (Homo sapiens, UniProt P28335); experiment: GPCRmax screen, agonist mode; format: cell-based
# T2 construct: beta-galactosidase enzyme fragment (PathHunter complementation tag); host or cells: PathHunter cell lines
# mice = experiment: Mouse fear extinction paradigm (PTSD model); format: in vivo; conditions: methylone 30 mg/kg IP; day 3
# Description: Effective PTSD treatments facilitate the disassociation between a traumatic memory and the patient's fear response, making cues for the traumatic memory evoke less of a fear response. This is modeled in the mouse fear extinction paradigm (see FIG. 9A) which takes place over 3 days. On day 1 (fear conditioning), mice are trained to acquire a “traumatic memory,” namely associating the conditioned stimulus (CS, tone) to the unconditioned stimulus (US, foot shock). On day 2 (extinction training), they are trained to forget the traumatic memory association by presenting the CS 6 times (with no US) in a novel environment. On day 3 (extinction recall), the mice are “asked” if that tone (CS) still elicits a fearful response, as measured by the time spent freezing when the tone is presented. Less time freezing means better extinction recall. Drugs that improve extinction recall reduce freezing time on day 3, and, therefore, show potential as a PTSD treatment.
# [11] = across oral doses of 50 mg to 200 mg
# T2 sequence (P28335 33-458): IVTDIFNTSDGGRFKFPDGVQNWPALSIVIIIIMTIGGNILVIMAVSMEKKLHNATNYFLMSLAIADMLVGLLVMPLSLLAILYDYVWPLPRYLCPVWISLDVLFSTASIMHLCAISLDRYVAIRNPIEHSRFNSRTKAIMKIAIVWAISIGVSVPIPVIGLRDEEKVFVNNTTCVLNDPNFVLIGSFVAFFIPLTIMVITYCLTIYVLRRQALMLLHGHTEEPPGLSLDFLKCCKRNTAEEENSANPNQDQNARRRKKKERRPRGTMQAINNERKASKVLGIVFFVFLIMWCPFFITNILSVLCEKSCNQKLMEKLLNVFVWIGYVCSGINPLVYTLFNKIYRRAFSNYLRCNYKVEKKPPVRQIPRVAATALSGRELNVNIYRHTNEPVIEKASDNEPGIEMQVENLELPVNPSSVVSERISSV
# serotonin transporter (SERT), sequence (P31652 whole entry): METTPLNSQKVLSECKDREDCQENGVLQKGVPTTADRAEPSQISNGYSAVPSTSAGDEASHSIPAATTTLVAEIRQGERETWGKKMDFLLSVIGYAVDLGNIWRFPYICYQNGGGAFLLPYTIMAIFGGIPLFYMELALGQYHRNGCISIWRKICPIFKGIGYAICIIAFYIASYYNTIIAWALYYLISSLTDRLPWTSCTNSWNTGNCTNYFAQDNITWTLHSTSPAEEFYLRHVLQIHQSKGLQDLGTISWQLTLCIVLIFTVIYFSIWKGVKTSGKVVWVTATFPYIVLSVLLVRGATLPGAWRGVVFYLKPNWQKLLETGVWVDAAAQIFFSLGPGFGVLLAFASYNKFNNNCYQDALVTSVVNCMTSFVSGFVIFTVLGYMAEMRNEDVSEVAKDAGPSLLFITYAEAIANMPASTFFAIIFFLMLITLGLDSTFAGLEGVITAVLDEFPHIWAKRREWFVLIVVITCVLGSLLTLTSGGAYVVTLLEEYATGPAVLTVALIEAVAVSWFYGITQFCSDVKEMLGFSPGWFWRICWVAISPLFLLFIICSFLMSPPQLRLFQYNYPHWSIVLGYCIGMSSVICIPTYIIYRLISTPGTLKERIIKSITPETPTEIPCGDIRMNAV
# T1 sequence (P47898 whole entry, the tested form may be a part): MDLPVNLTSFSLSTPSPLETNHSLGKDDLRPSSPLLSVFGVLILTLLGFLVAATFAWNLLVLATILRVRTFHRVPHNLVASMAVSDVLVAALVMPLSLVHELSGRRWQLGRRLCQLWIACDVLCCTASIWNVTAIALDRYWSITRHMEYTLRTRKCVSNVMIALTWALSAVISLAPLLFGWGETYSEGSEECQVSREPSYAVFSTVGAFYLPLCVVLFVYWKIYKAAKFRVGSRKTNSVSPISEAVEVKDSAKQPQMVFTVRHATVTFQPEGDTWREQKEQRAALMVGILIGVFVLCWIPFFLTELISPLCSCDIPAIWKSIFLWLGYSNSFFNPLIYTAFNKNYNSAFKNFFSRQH
# 168 GPCRs (Homo sapiens, UniProt Q9HB89), sequence (Q9HB89 whole entry): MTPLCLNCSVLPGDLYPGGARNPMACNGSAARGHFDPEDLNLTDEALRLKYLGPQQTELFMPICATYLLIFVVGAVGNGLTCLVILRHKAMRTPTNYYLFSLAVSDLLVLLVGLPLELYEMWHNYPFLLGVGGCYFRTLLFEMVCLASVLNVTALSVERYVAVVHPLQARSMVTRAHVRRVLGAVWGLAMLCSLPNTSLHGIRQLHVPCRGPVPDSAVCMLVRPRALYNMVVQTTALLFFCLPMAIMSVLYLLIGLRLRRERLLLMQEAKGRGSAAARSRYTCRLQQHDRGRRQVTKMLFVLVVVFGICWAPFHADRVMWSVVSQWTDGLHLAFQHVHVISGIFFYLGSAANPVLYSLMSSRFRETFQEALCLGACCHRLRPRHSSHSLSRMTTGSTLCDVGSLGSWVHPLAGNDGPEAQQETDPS
# 168 GPCRs (Homo sapiens, UniProt Q8TDV5), sequence (Q8TDV5 whole entry): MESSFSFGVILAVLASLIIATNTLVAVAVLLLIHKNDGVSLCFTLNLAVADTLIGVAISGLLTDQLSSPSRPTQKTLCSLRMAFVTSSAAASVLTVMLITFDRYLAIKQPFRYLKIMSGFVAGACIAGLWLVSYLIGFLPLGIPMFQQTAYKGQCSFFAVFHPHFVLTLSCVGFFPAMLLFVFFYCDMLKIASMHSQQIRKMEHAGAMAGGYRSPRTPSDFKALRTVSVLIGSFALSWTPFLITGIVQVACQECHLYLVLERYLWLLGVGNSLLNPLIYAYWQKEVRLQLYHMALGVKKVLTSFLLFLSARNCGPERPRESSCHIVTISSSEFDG
# 168 GPCRs (Homo sapiens, UniProt P34981), sequence (P34981 whole entry): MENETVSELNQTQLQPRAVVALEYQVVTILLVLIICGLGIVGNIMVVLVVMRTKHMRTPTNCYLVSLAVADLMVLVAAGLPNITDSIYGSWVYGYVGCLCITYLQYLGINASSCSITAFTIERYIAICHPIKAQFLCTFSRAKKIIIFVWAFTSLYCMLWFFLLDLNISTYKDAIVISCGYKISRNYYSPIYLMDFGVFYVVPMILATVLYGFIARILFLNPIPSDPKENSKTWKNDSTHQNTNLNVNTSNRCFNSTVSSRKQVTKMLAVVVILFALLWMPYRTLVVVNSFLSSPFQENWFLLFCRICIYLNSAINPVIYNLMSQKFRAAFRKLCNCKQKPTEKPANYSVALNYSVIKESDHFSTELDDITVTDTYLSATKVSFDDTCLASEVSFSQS
# 168 GPCRs (Homo sapiens, UniProt P41597), sequence (P41597 whole entry): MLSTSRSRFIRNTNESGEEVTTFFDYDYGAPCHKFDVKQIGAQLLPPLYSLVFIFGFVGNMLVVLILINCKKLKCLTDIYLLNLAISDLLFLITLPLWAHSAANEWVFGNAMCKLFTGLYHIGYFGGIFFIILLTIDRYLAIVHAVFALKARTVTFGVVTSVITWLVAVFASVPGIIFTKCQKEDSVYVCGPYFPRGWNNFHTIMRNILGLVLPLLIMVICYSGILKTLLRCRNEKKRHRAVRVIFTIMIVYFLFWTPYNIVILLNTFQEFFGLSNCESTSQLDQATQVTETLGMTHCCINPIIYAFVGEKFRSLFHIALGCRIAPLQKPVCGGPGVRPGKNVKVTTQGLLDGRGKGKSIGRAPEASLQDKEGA
# 168 GPCRs (Homo sapiens, UniProt Q9P296), sequence (Q9P296 whole entry): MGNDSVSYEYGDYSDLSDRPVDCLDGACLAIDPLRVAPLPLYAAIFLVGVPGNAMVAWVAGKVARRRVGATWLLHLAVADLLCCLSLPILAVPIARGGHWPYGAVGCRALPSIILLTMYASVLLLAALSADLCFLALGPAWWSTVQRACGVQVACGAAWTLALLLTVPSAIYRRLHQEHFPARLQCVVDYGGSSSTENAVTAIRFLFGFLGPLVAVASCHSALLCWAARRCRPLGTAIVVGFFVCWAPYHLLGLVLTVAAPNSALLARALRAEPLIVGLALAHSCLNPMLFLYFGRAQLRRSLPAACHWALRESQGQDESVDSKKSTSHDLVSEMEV
# 168 GPCRs (Homo sapiens, UniProt Q969F8), sequence (Q969F8 whole entry): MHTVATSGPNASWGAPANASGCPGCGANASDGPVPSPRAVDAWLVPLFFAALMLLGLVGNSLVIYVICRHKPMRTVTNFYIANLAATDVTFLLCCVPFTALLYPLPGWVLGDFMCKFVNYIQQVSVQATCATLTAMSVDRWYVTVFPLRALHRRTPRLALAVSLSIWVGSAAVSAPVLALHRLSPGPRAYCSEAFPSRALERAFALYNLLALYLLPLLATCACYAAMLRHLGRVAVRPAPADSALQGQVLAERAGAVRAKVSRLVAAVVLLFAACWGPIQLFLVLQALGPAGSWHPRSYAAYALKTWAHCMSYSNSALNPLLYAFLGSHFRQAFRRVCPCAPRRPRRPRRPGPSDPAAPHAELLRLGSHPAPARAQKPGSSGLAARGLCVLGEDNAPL
compound,measurement,setting,value
"CNC(C)C(=O)c1ccc2c(c1)OCO2 (centres unmarked) [methylone, 3,4-methylenedioxy-N-methylcathinone]",half-life,[1]; [11],6 to 7 h
same,time to reach maximum concentrations (Tmax),[1]; [11],1 to 2 h
same,"AUC10 hr, geometric mean","[1]; oral 50 mg, N = 3",725 ng·h/mL
same,"Tmax, median","[1]; oral 50 mg, N = 3",1.5 h
same,"Cmax, geometric mean","[1]; oral 100 mg, N = 6",283.9 ng/mL
same,"Half-life, geometric mean","[1]; oral 100 mg, N = 6",6.0 h
same,"Tmax, median","[1]; oral 100 mg, N = 6",2.5 h
same,"AUC24 hr, geometric mean","[1]; oral 150 mg, N = 5",3165 ng·h/mL
same,"AUCinf, geometric mean","[1]; oral 150 mg, N = 5",3509 ng·h/mL
same,"Tmax, median","[1]; oral 150 mg, N = 5",2 h
same,"Half-life, geometric mean","[1]; oral 200 mg, N = 7",6.5 h
same,"Tmax, median","[1]; oral 200 mg, N = 7",2 h
same,type of interaction at the SERT,[2]; [3H]5HT saturation curves,competitive
same,effect on Bmax of [3H]5HT uptake,[2],no decrease in Bmax
same,effect on Kd of [3H]5HT uptake,[2],right shifted
same,adverse effects or after-effects,healthy adult subjects,no adverse effects or after-effects were observed or reported
same,agonist activity at any of the 168 GPCRs (criterion >30% activity),168 GPCRs [3]; 1 and 10 micromolar,did not meet criteria for agonist or antagonist activity
same,% Activity,"168 GPCRs [3]; DRD2S, Agonist mode, 10 uM",0.6%
same,% Activity,"168 GPCRs [3]; DRD2S, Agonist, 1 uM",0%
same,% Activity,"168 GPCRs [3]; NPSR1b, Agonist mode, 10 uM",4.8%
same,% Activity,"168 GPCRs [3]; NPSR1b, Agonist, 1 uM",−1.3%
same,activity at 10 µM,"168 GPCRs [4]; Agonist mode, 10 uM",2%
same,activity at 1 µM,"168 GPCRs [4]; Agonist, 1 uM",1.3%
same,activity at 1 µM,168 GPCRs [5]; 1 uM,8.4%
same,activity at 10 µM,168 GPCRs [5]; 10 uM,12.9%
same,activity at 10 µM,"168 GPCRs [6]; Agonist mode, 10 uM",-3.7%
same,activity at 1 µM,"168 GPCRs [6]; Agonist, 1 uM",-5.5%
same,activity at 1 µM,168 GPCRs [7]; 1 uM,-0.4%
same,activity at 10 µM,168 GPCRs [7]; 10 uM,-0.5%
same,activity at 10 µM,"168 GPCRs [8]; Agonist mode, 10 uM",-2.2%
same,activity at 1 µM,"168 GPCRs [8]; Agonist, 1 uM",-2%
same,activity at 10 µM,"168 GPCRs [9]; GPR119, Agonist mode, 10 uM",-2.2%
same,activity at 1 µM,"168 GPCRs [9]; GPR119, Agonist, 1 uM",-5.8%
same,locomotor activity (OFT) vs. vehicle,rats; methylone 5 mg/kg,no effect
same,locomotor activity (OFT) vs. vehicle,rats; methylone 15 or 30 mg/kg,significant increase in locomotor activity
same,time spent in the center of the open field vs. vehicle,rats,significantly increases the time spent in the center
same,time spent in the center of the open field vs. vehicle,rats; listed as Methylone,significantly increased center time
same,"agonist % activity, greatest activity detected","5HT5A; 1 or 10 mM, threshold 30%",13.9%
same,activity at 10 µM,"5HT5A; HTR5A, Agonist mode, 10 uM",13.9%
same,activity at 1 µM,"5HT5A; HTR5A, Agonist, 1 uM",13.6%
same,"MBP expression, basolateral nucleus of the amygdala, vs. vehicle",[10],significant reduction in MBP
same,"MBP expression, central nucleus of the amygdala, vs. vehicle",[10],significant reduction in MBP
same,"MBP expression, cortex (control region)",[10],No change in MBP
same,agonist % activity,"5HT2C receptor; 1 or 10 mM, threshold 30%",no agonist or antagonist activity
same,activity at 10 µM,"5HT2C receptor; HTR2C, Agonist mode, 10 uM",3.7%
same,activity at 1 µM,"5HT2C receptor; HTR2C, Agonist, 1 uM",1.4%
same,locomotion during testing session,mice,no differences between groups in locomotion
